This test concerns the target Fibrinogen beta chain (Homo sapiens) (UniProt P02675). Put plainly: inhibitors of Tn6 peptide binding to fibrin DD(E), late-stage follow-up, biochemical, fluorescence polarization, Ki, set 1 (AID 1053202). The settings on record: Purified DD(E), TRITC-Tn6 peptide displacement.

Calls of active or inactive are those of the source.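 Rule for the calls: active = Ki at or below 10 µM; inactive = Ki above 10 µM.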

Fibrinogen beta chain (Homo sapiens), sequence (P02675 whole entry, looked up): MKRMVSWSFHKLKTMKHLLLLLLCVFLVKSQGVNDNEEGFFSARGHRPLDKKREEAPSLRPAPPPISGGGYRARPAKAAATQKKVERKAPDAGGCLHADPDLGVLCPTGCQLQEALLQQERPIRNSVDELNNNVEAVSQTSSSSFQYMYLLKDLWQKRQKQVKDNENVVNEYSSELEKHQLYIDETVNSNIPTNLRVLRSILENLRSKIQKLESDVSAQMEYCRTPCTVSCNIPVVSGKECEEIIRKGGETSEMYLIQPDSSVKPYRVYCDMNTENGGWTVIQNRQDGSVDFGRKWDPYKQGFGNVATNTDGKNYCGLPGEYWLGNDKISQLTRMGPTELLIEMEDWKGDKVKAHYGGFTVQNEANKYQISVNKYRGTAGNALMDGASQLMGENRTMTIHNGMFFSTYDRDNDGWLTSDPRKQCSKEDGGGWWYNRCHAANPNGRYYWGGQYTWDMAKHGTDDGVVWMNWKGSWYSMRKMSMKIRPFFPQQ

In general, Ki refers to a measure of affinity in units of concentration, obtained from inhibition or displacement. As to `OCCn1c(CSc2nnc(-c3ccc4c(c3)OCO4)o2)nc2ccc(Cl)cc21`, the Ki result (protein 1 µM, probe 0.05 µM) was “inactive”. For the molecule `CCn1c(CSc2n[nH]c(N)n2)nc2cc(F)ccc21`, the Ki entry (protein 2 µM, probe 0.1 µM) is “inactive”. Still for that read-out and setting: then `CCn1c(CSc2nnc(-c3ccoc3C)o2)nc2cc(S(=O)(=O)N(C)C)ccc21`, with “inactive”; and `CCCCn1c(CSc2n[nH]c(=O)n2CCC)nc2cc(S(N)(=O)=O)ccc21`, with “inactive”. Take `CCCn1c(SCc2nc3cc(C(=O)O)ccc3n2CC)nc2ccccc2c1=O`: the inhibition constant Ki (protein 2 µM, probe 0.1 µM) is 1.34 µM. The same measure, in the same setting: then `CCn1c(CSc2nnc(COc3ccc(OC)cc3)n2-c2ccccc2F)nc2cc(C(=O)O)ccc21`, with 5.6 µM; and `CCCCn1c(CSc2nnc(-c3ccco3)n2C)nc2cc(S(N)(=O)=O)ccc21`, with “inactive”; and `Nn1cc(-c2ccccc2)nc1SCc1nc2ccc(Cl)cc2n1CCO`, with “inactive”. The same measure, in the same setting: then `CCn1c(CSc2n[nH]c(-c3ccccc3)n2)nc2cc(S(=O)(=O)N3CCCCC3)ccc21`, with “inactive”. Take `CCn1c(CSc2nc3ccccc3[nH]2)nc2cc(C(=O)O)ccc21`: where the note is “protein 1 µM, probe 0.05 µM”, the Ki entry is “inactive”. Regarding `CCn1c(CSc2nnc(Nc3ccccc3F)s2)nc2cc(C(=O)O)ccc21`, the Ki (protein 2 µM, probe 0.1 µM) was 2.82 µM. Still for that read-out and setting: then `CCn1c(CSc2nncn2C)nc2cc(C(=O)O)ccc21`, with 5.01 µM.

Take `CCn1c(CSc2nc3sc4c(c3c(=O)n2CCOC)CCCC4)nc2cc(C(=O)O)ccc21`: where the note is “protein 2 µM, probe 0.1 µM”, the Ki result is “inactive”. Take `CCn1c(CSc2n[nH]c(N)n2)nc2cc(C(=O)O)ccc21`: the Ki (protein 1 µM, probe 0.05 µM) is 5.11 µM.

Take `CCCCn1c(CSc2nc3ccccc3[nH]2)nc2cc(S(N)(=O)=O)ccc21`: where the note is “protein 2 µM, probe 0.1 µM”, the Ki entry was “inactive”. The same measure, in the same setting: under `OCCn1c(CSc2nc3ccccc3o2)nc2ccc(Cl)cc21` stands “inactive”; under `CCn1c(CSc2nc3ccccc3c(=O)n2-c2ccccc2F)nc2cc(C(=O)O)ccc21`, “inactive”; under `CCCCn1c(CSc2nnc(-c3ccccc3F)n2C)nc2cc(S(N)(=O)=O)ccc21`, “inactive”.

For the molecule `CCCCn1c(CSc2nnc(-c3ccccc3F)n2N)nc2cc(S(N)(=O)=O)ccc21`, the Ki result (protein 2 µM, probe 0.1 µM) is “inactive”. Regarding `CCn1c(CSc2nnc(-c3ccncc3)n2C)nc2cc(C(=O)O)ccc21`, the Ki (protein 1 µM, probe 0.05 µM) is 5.1 µM. Turning to `COc1ccc2nc(SCc3nc4ccc(Cl)cc4n3CCO)[nH]c2c1`, the Ki entry (protein 2 µM, probe 0.1 µM) is “inactive”.

Regarding `CCn1c(CSc2nnc(N)s2)nc2cc(F)ccc21`, where the note is “protein 2 µM, probe 0.1 µM”, the Ki is 2.3 µM. Same read-out and setting: under `CCn1c(CSc2nccn2C)nc2cc(S(=O)(=O)N3CCCCC3)ccc21` stands 5.1 µM; under `CCn1c(CSc2nnnn2-c2ccccc2)nc2cc(C(=O)O)ccc21`, “inactive”; under `CCn1c(CSc2ncnc3sc(C)c(C)c23)nc2cc(C(=O)O)ccc21`, “inactive”.

As for `Nc1nnc(SCc2nc3ccccc3[nH]2)s1`, the Ki entry (protein 2 µM, probe 0.1 µM) was “inactive”.

As for `CCn1c(CSc2ccc(NC(C)=O)cc2)nc2cc(C(=O)O)ccc21`, the Ki entry (protein 2 µM, probe 0.1 µM) was “inactive”.

Take `CCn1c(CSc2nc(C3CC3)n(-c3ccccc3)n2)nc2cc(S(=O)(=O)N(C)C)ccc21`: the inhibitory constant (Ki) (protein 2 µM, probe 0.1 µM) is 2.46 µM. Consider `CCn1c(CSc2nc3ccccc3s2)nc2cc(C(=O)O)ccc21`, for which the Ki (protein 2 µM, probe 0.1 µM) is 4.57 µM. As for `C=CCNc1nnc(SCc2nc3cc(S(=O)(=O)N(C)C)ccc3n2CCC)s1`, the Ki entry (protein 2 µM, probe 0.1 µM) is “inactive”.

For `C=CCn1c(SCc2nc3ccc(Cl)cc3n2CCO)nnc1-c1ccc(Cl)cc1`, the Ki entry (protein 2 µM, probe 0.1 µM) was “inactive”. The same measure, in the same setting: under `CCCn1c(SCc2nc3cc(S(=O)(=O)N4CCOCC4)ccc3n2CCC)n[nH]c1=O` stands 5.1 µM. Take `CCn1c(CSc2nnc3ccccn23)nc2cc(C(=O)O)ccc21`: the Ki (protein 1 µM, probe 0.05 µM) was 2.3 µM. On the same count and under the same terms, under `CCn1c(CSc2ncn[nH]2)nc2cc(C(=O)O)ccc21` stands “inactive”.

In the case of `CCn1c(CSc2nnc(-c3ccncc3)n2CCOC)nc2cc(C(=O)O)ccc21`, where the note is “protein 1 µM, probe 0.05 µM”, the Ki is 3.75 µM. As to `CCn1c(CSc2nccn2C)nc2cc(C(=O)O)ccc21`, the Ki result (protein 1 µM, probe 0.05 µM) is “inactive”. For `CCn1c(CSc2nnnn2C(C)C)nc2cc(C(=O)O)ccc21`, where the note is “protein 2 µM, probe 0.1 µM”, the Ki result is “inactive”.

The values are drawn from PubChem BioAssay AID1053202 (The Scripps Research Institute Molecular Screening Center, 2014).
